{
  "source": "patent US8765773B2",
  "about": "“Substituted hydroxamic acids and uses thereof” (Millennium Pharmaceuticals, Inc., priority 2010, dated 2014)",
  "data": [
    {"target": "T1, purified human HDAC6 (Homo sapiens, UniProt Q9UBN7)", "T1 construct": "purchased BPS Bioscience 5006", "T1 sequence (Q9UBN7 1-1215)": "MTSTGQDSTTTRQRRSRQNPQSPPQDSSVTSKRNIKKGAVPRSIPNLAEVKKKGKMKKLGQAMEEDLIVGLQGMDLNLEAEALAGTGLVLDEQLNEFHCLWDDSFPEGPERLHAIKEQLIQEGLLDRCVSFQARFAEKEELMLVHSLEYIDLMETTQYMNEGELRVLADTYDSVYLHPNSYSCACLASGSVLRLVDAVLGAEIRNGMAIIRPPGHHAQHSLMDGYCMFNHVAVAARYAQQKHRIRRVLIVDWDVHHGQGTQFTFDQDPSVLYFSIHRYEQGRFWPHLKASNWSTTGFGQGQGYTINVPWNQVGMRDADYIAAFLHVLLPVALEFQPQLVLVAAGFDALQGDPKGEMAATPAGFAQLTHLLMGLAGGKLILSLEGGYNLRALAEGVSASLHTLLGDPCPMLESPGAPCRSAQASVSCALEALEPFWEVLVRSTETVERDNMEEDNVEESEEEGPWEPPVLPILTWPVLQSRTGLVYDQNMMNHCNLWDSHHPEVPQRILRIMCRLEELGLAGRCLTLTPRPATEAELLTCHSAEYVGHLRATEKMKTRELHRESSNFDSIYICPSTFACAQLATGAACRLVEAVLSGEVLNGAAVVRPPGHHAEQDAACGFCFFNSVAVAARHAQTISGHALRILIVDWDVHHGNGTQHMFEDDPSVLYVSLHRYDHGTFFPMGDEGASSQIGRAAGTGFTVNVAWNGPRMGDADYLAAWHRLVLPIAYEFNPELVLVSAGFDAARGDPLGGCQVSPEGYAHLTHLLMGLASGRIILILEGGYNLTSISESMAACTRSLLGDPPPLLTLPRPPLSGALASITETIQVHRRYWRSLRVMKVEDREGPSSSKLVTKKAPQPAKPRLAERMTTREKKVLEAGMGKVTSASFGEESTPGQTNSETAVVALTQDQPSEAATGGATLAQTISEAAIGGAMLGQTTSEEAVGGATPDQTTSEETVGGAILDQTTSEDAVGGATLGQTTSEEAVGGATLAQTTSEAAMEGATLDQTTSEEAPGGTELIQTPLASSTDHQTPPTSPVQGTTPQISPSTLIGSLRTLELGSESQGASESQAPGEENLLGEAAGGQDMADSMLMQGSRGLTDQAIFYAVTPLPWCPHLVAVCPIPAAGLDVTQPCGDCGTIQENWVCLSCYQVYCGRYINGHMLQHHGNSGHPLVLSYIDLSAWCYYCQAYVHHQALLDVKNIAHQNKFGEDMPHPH", "assay": "HDAC6 Enzyme Assay", "format": "biochemical", "conditions": "compound concentration 0.37 μM, read-out: Percent Inhibition", "outline": "(§1)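 Readout is AMC fluorescence (Ex 340 nm, Em 460 nm) after trypsin cleavage of the deacetylated Ac-Arg-Gly-Lys(Ac)-AMC product. Reaction: purified human HDAC6, compound or vehicle, 1 hour, 30° C, quenched by trichostatin A. Single-concentration percent inhibition or IC50 calculated versus DMSO-treated samples.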", "units": {"inhibition at 0.37 µM": "%"}, "values": [
      {"smiles": "O=C(NO)c1ccc2c(=O)n(Cc3ccc(C(F)(F)F)cc3)c(-c3cccnc3)nc2c1", "note": "[Compound I-133, N-hydroxy-4-oxo-2-pyridin-3-yl-3-[4-(trifluoromethyl)benzyl]-3,4-dihydroquinazoline-7-carboxamide]", "inhibition at 0.37 µM": 92.2},
      {"smiles": "COCc1cn(Cc2ccccc2)c(=O)c2cc(C(=O)NO)ccc12", "note": "[Compound I-394, 2-benzyl-N-hydroxy-4-(methoxymethyl)-1-oxo-1,2-dihydroisoquinoline-7-carboxamide]", "inhibition at 0.37 µM": 49.2},
      {"smiles": "CC(C)(C)C(=O)NCCCn1ccc2ccc(C(=O)NO)cc2c1=O", "note": "[Compound I-8, 2-{3-[(2,2-dimethylpropanoyl)amino]propyl}-N-hydroxy-1-oxo-1,2-dihydroisoquinoline-7-carboxamide]", "inhibition at 0.37 µM": 91.7},
      {"smiles": "O=C(NO)c1ccc2ncn(CCc3cccc(-c4ccc(F)cc4)c3)c(=O)c2c1", "note": "[Compound I-300, 3-[2-(4′-fluorobiphenyl-3-yl)ethyl]-N-hydroxy-4-oxo-3,4-dihydroquinazoline-6-carboxamide]", "inhibition at 0.37 µM": 91.7},
      {"smiles": "O=C(NO)c1ccc2ncn(Cc3cccc(S(=O)(=O)c4ccccc4)c3)c(=O)c2c1", "note": "[Compound I-142, N-hydroxy-4-oxo-3-[3-(phenylsulfonyl)benzyl]-3,4-dihydroquinazoline-6-carboxamide]", "inhibition at 0.37 µM": 97.4},
      {"smiles": "Cn1c(-c2nc3cc(C(=O)NO)ccc3c(=O)[nH]2)cc2ccccc21", "note": "[Compound I-415, N-hydroxy-2-(1-methyl-1H-indol-2-yl)-4-oxo-3,4-dihydroquinazoline-7-carboxamide]", "inhibition at 0.37 µM": 79.9},
      {"smiles": "O=C(NO)c1ccc2ncn(CCc3cccc(-c4cccnc4)c3)c(=O)c2c1", "note": "[Compound I-331, N-hydroxy-4-oxo-3-[2-(3-pyridin-3-ylphenyl)ethyl]-3,4-dihydroquinazoline-6-carboxamide]", "inhibition at 0.37 µM": 87.2},
      {"smiles": "NCc1cn(Cc2ccccc2)c(=O)c2cc(C(=O)NO)ccc12", "note": "[Compound I-407, 4-(aminomethyl)-2-benzyl-N-hydroxy-1-oxo-1,2-dihydroisoquinoline-7-carboxamide]", "inhibition at 0.37 µM": 51.1},
      {"smiles": "O=C(NO)c1ccc2c(CO)cn(Cc3ccccc3)c(=O)c2c1", "note": "[Compound I-337, 2-benzyl-N-hydroxy-4-(hydroxymethyl)-1-oxo-1,2-dihydroisoquinoline-7-carboxamide]", "inhibition at 0.37 µM": 57.7},
      {"smiles": "O=C(NO)c1ccc2ncn(CCc3cccc(-c4ccccc4Cl)c3)c(=O)c2c1", "note": "[Compound I-314, 3-[2-(2′-chlorobiphenyl-3-yl)ethyl]-N-hydroxy-4-oxo-3,4-dihydroquinazoline-6-carboxamide]", "inhibition at 0.37 µM": 93.5}
    ]},
    {"target": "T1, purified human HDAC6", "assay": "HDAC6 Enzyme Assay", "format": "biochemical", "conditions": "compound concentration 0.412 μM, read-out: Percent Inhibition", "outline": "as §1", "units": {"inhibition at 0.412 µM": "%"}, "values": [
      {"smiles": "O=C(NO)c1ccc2c(=O)n(Cc3ccccc3)c(NCc3ccc(Cl)cc3)nc2c1", "note": "[Compound I-238, 3-benzyl-2-[(4-chlorobenzyl)amino]-N-hydroxy-4-oxo-3,4-dihydroquinazoline-7-carboxamide]", "inhibition at 0.412 µM": 86.2},
      {"smiles": "O=C(NO)c1ccc2c(=O)n(Cc3ccccc3)c(=O)[nH]c2c1", "note": "[Compound I-194, 3-benzyl-N-hydroxy-2,4-dioxo-1,2,3,4-tetrahydroquinazoline-7-carboxamide]", "inhibition at 0.412 µM": 36.1},
      {"smiles": "O=C(NO)c1ccc2ccn(C3CCCC3)c(=O)c2c1", "note": "[Compound I-105, 2-cyclopentyl-N-hydroxy-1-oxo-1,2-dihydroisoquinoline-7-carboxamide]", "inhibition at 0.412 µM": 86.5},
      {"smiles": "O=C(NO)c1ccc2c(=O)n(Cc3ccc(C(F)(F)F)cc3)c(-c3ccccc3)nc2c1", "note": "[Compound I-73, N-hydroxy-4-oxo-2-phenyl-3-[4-(trifluoromethyl)benzyl]-3,4-dihydroquinazoline-7-carboxamide]", "inhibition at 0.412 µM": 87.7},
      {"smiles": "O=C(NO)c1ccc2c(=O)[nH]c(-c3cccc(C(F)(F)F)c3)nc2c1", "note": "[Compound I-260, N-hydroxy-4-oxo-2-[3-(trifluoromethyl)phenyl]-3,4-dihydroquinazoline-7-carboxamide]", "inhibition at 0.412 µM": 73.2},
      {"smiles": "O=C(NO)c1ccc2ccn(Cc3ccc(Cl)c(Cl)c3)c(=O)c2c1", "note": "[Compound I-1, 2-(3,4-dichlorobenzyl)-N-hydroxy-1-oxo-1,2-dihydroisoquinoline-7-carboxamide]", "inhibition at 0.412 µM": 95.9}
    ]}
  ]
}
